Series [1] is described as follows: Sterilization by dry heat, appearance of the material. Type of series: physicochemical. The following applies: 180° C. for 2 hours. The method, then: Sorbitan monostearate (Sanyo, Japan) was subjected to sterilization by dry heat at a temperature of 180° C. for 2 hours. […] The material thus obtained though it would pass the test for sterility renders the final product unacceptable for pharmiaceutical use because of the dark brown color it imparts.

Series [2] is described as follows: Sterilization by gamma irradiation, appearance / degradation of the gelling agent. The class given is physicochemical. The following applies: 25 KGy, 60Cobalt source. The source says: In an additional embodiment of the invention, the sterile dried bulk gelling agent is subjected to sterilization by gamma irradiation. […] Other materials in the gelled polymeric dispersion can be processed by other techniques as described above and generally known in the art of preparation of sterile dosage forms.
Sorbitan monostearate prepared in Example 1 was exposed to gamma irradiation at a dose of 25 KGy using a ^60Cobalt source at a contract irradiation laboratory. A dose of 25 KGy is accepted internationally to be sufficient to ensure sterility (British Pharmacopoeia).

The values below come from US20060286130A1, “Sterile gelling agents” (priority 2005, published 2006).

Regarding “Sorbitan monostearate [listing 1 of 2 here]”, in series [1], the “appearance after sterilization by dry heat” value is recorded as “dark brown colored mass”. With “Sorbitan monostearate [listing 2 of 2 here]”, in series [2], the “change in appearance after gamma irradiation” value is reported as “no change in appearance”.
